Tested on: Crude diglycosidase
Assay: Examination of pH in the conversion into isoflavone aglycons by diglycosidase using soybean materials
Format: biochemical, Penicillium multicolor IAM7153
Set-up: Decomposition efficiency of genistin family in soymilk / Decomposition efficiency of genistin family in defatted soybean / Decomposition efficiency of daidzin family in defatted soybean: concentration or dose not given beside the values
Settings: for Decomposition efficiency of genistin family in roasted soy flour: 55° C.
Method: A substrate solution of 450 μL was prepared by suspending 50 mg of each soybean material (roasted soy flour (manufactured by Fuji Shokuryo K.K.), soymilk (manufactured by Gitoh Shokuhin K.K.), defatted soybean (manufactured by Fuji Seiyu K.K.), concentrated soybean protein (manufactured by Fuji Seiyu K.K.)), and adjusting the pH to 2 to 11 with hydrochloric acid or sodium hydroxide. Each enzyme solution of pH 2–11 wherein diglycosidase activity of crude diglycosidase was adjusted to 1.88 AU/mL was added thereto in an amount of 50 μL and the whole was reacted at 55° C. at the total volume of 500 μL. To the reaction mixture was added 700 μL of ethanol after 0, 1, 3, and 6 hours of the reaction. After stirring and ultrasonication, the mixture was subjected to centrifugal separation at 15,000 rpm and 4° C. for 10 minutes. The supernatant was filtered through a filter and the existence of isoflavone glycosides and aglycon isoflavones contained in the reaction mixture was detected by HLPC (Tables 15 to 26).

[1] = pH4.8, heat treatment of enzyme: no, reaction time 0 h
[2] = pH4.8, heat treatment of enzyme: no, reaction time 1 h
[3] = pH4.8, heat treatment of enzyme: no, reaction time 3 h
[4] = pH4.8, heat treatment of enzyme: no, reaction time 6 h
[5] = pH4.8, heat treatment of enzyme: yes, reaction time 6 h

CC(=O)OC[C@H]1O[C@@H](Oc2cc(O)c3c(=O)c(-c4ccc(O)cc4)coc3c2)[C@H](O)[C@@H](O)[C@@H]1O [acetylgenistin, 6″-O-acetylgenistin]
Decomposition efficiency of genistin family in concentrated soybean protein (pH1.6, heat treatment of enzyme: no, reaction time 0 h): 42.5% | Decomposition efficiency of genistin family in concentrated soybean protein (pH1.6, heat treatment of enzyme: no, reaction time 1 h): 42.2% | Decomposition efficiency of genistin family in concentrated soybean protein (pH1.6, heat treatment of enzyme: no, reaction time 3 h): 40.6% | Decomposition efficiency of genistin family in concentrated soybean protein (pH1.6, heat treatment of enzyme: no, reaction time 6 h): 38.9% | Decomposition efficiency of genistin family in concentrated soybean protein (pH1.6, heat treatment of enzyme: yes, reaction time 6 h): 37.7% | Decomposition efficiency of genistin family in roasted soy flour (pH2, heat treatment of enzyme no, reaction time 0 h): 45.2 | Decomposition efficiency of genistin family in roasted soy flour (pH2, heat treatment of enzyme no, reaction time 1 h): 45.0 | Decomposition efficiency of genistin family in roasted soy flour (pH2, heat treatment of enzyme no, reaction time 3 h): 43.1 | Decomposition efficiency of genistin family in roasted soy flour (pH2, heat treatment of enzyme no, reaction time 6 h): 40.7 | Decomposition efficiency of genistin family in roasted soy flour (pH2, heat treatment of enzyme yes, reaction time 6 h): 41.2 | Decomposition efficiency of genistin family in soymilk (pH2.3, heat treatment of enzyme: no, reaction time 0 h): 0.6% | Decomposition efficiency of genistin family in soymilk (pH2.3, heat treatment of enzyme: no, reaction time 1 h): 0.7% | Decomposition efficiency of genistin family in soymilk (pH2.3, heat treatment of enzyme: no, reaction time 3 h): 0.8% | Decomposition efficiency of genistin family in soymilk (pH2.3, heat treatment of enzyme: no, reaction time 6 h): 0.6% | Decomposition efficiency of genistin family in soymilk (pH2.3, heat treatment of enzyme: yes, reaction time 6 h): 0.6% | Decomposition efficiency of genistin family in defatted soybean (pH2.6, heat treatment of enzyme: no, reaction time 0 h): 1.8% | Decomposition efficiency of genistin family in defatted soybean (pH2.6, heat treatment of enzyme: no, reaction time 1 h): 1.7% | Decomposition efficiency of genistin family in defatted soybean (pH2.6, heat treatment of enzyme: no, reaction time 3 h): 1.7% | Decomposition efficiency of genistin family in defatted soybean (pH2.6, heat treatment of enzyme: no, reaction time 6 h): 1.9% | Decomposition efficiency of genistin family in defatted soybean (pH2.6, heat treatment of enzyme: yes, reaction time 6 h): 1.6% | Decomposition efficiency of genistin family in concentrated soybean protein (pH2.7, heat treatment of enzyme: no, reaction time 0 h): 42.5% | Decomposition efficiency of genistin family in concentrated soybean protein (pH2.7, heat treatment of enzyme: no, reaction time 1 h): 44.3% | Decomposition efficiency of genistin family in concentrated soybean protein (pH2.7, heat treatment of enzyme: no, reaction time 3 h): 43.7% | Decomposition efficiency of genistin family in concentrated soybean protein (pH2.7, heat treatment of enzyme: no, reaction time 6 h): 44.0% | Decomposition efficiency of genistin family in concentrated soybean protein (pH2.7, heat treatment of enzyme: yes, reaction time 6 h): 42.5% | Decomposition efficiency of genistin family in roasted soy flour (pH3, heat treatment of enzyme no, reaction time 0 h): 45.2 | Decomposition efficiency of genistin family in roasted soy flour (pH3, heat treatment of enzyme no, reaction time 1 h): 45.2 | Decomposition efficiency of genistin family in roasted soy flour (pH3, heat treatment of enzyme no, reaction time 3 h): 41.9 | Decomposition efficiency of genistin family in roasted soy flour (pH3, heat treatment of enzyme no, reaction time 6 h): 43.5 | Decomposition efficiency of genistin family in roasted soy flour (pH3, heat treatment of enzyme yes, reaction time 6 h): 45.1 | Decomposition efficiency of genistin family in defatted soybean (pH3.4, heat treatment of enzyme: no, reaction time 0 h): 1.8% | Decomposition efficiency of genistin family in defatted soybean (pH3.4, heat treatment of enzyme: no, reaction time 1 h): 1.5% | Decomposition efficiency of genistin family in defatted soybean (pH3.4, heat treatment of enzyme: no, reaction time 3 h): 1.1% | Decomposition efficiency of genistin family in defatted soybean (pH3.4, heat treatment of enzyme: no, reaction time 6 h): 0.8% | Decomposition efficiency of genistin family in defatted soybean (pH3.4, heat treatment of enzyme: yes, reaction time 6 h): 1.8% | Decomposition efficiency of genistin family in soymilk (pH3.5, heat treatment of enzyme: no, reaction time 0 h): 0.6% | Decomposition efficiency of genistin family in soymilk (pH3.5, heat treatment of enzyme: no, reaction time 1 h): not detected | Decomposition efficiency of genistin family in soymilk (pH3.5, heat treatment of enzyme: no, reaction time 3 h): not detected | Decomposition efficiency of genistin family in soymilk (pH3.5, heat treatment of enzyme: no, reaction time 6 h): not detected | Decomposition efficiency of genistin family in soymilk (pH3.5, heat treatment of enzyme: yes, reaction time 6 h): 0.5% | Decomposition efficiency of genistin family in concentrated soybean protein (pH3.7, heat treatment of enzyme: no, reaction time 0 h): 43.1% | Decomposition efficiency of genistin family in concentrated soybean protein (pH3.7, heat treatment of enzyme: no, reaction time 1 h): 43.5% | Decomposition efficiency of genistin family in concentrated soybean protein (pH3.7, heat treatment of enzyme: no, reaction time 3 h): 36.9% | Decomposition efficiency of genistin family in concentrated soybean protein (pH3.7, heat treatment of enzyme: no, reaction time 6 h): 30.7% | Decomposition efficiency of genistin family in concentrated soybean protein (pH3.7, heat treatment of enzyme: yes, reaction time 6 h): 43.0% | Decomposition efficiency of genistin family in roasted soy flour (pH4, heat treatment of enzyme no, reaction time 0 h): 45.4 | Decomposition efficiency of genistin family in roasted soy flour (pH4, heat treatment of enzyme no, reaction time 1 h): 36.3 | Decomposition efficiency of genistin family in roasted soy flour (pH4, heat treatment of enzyme no, reaction time 3 h): 23.4 | Decomposition efficiency of genistin family in roasted soy flour (pH4, heat treatment of enzyme no, reaction time 6 h): 13.4 | Decomposition efficiency of genistin family in roasted soy flour (pH4, heat treatment of enzyme yes, reaction time 6 h): 45.4 | Decomposition efficiency of genistin family in defatted soybean [1]: 1.8% | Decomposition efficiency of genistin family in soymilk [1]: 0.5% | Decomposition efficiency of genistin family in defatted soybean [2]: 1.0% | Decomposition efficiency of genistin family in soymilk [2]: not detected | Decomposition efficiency of genistin family in defatted soybean [3]: 0.6% | Decomposition efficiency of genistin family in soymilk [3]: not detected | Decomposition efficiency of genistin family in defatted soybean [4]: 0.4% | Decomposition efficiency of genistin family in soymilk [4]: not detected | Decomposition efficiency of genistin family in defatted soybean [5]: 1.3% | Decomposition efficiency of genistin family in soymilk [5]: 0.6%

Source: patent US7118895B2, “Process for producing aglycon by using diglycosidase and flavor-improved food containing the aglycon and converting agent to be used in the process” (Amano Enzyme Inc., priority 2000, dated 2006)
